{
  "source": "patent US5530018A",
  "about": "“Meso-azanoradamantanes” (G. D. Searle & Co., priority 1994, dated 1996)",
  "key": {"myenteric neurons": {"test_system": "myenteric neurons", "conditions": "cited from earlier work"}, "5-HT4 receptor [1]": {"test_system": "5-HT4 receptor", "conditions": "mouse embryonic colliculi neurons; cited from earlier work"}, "5-HT4 receptors": {"test_system": "5-HT4 receptors", "conditions": "cited from earlier work"}, "5-HT4 receptor [2]": {"target": "T1, 5-HT4 receptor (Rattus norvegicus, UniProt Q62758)", "T1 construct": "One 2 cm segment of intrathoracic esophagus proximal to the diaphragm was removed from male rats; from tissue; host or cells: rat intrathoracic oesophagus, inner tunica muscularis mucosae", "T1 sequence (Q62758 whole entry)": "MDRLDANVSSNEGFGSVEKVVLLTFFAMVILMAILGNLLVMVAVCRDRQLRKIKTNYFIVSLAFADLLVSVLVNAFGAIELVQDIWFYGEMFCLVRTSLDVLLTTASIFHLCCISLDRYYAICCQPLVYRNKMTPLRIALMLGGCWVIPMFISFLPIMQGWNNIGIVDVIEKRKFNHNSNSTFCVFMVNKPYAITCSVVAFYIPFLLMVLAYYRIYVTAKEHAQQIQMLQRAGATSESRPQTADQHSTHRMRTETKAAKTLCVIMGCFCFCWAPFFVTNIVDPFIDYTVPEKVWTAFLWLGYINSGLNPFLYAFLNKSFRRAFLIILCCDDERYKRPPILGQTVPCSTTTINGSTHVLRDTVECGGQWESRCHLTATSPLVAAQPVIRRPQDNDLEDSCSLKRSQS", "assay": "cell-based", "conditions": "carbachol (3 μM)-contracted rat TMM, 37° C., tissues from 5 rats; read-out: 5-HT4 Agonism (Rat TMM) In Vitro Assay: EC50 values", "procedure": "(§1) 5-HT4 agonist activity was determined in the in vitro rat tunica muscularis mucosae (TMM) assay described herein. (Baxter et al., Naunyn Schmied Arch. Pharmacol, 1991, 343, 439). […] One with skill in the art could determine the activity of the compounds of the present invention using the methodology of these assays, described herein, without undue experimentation.\nSchmied. Arch. Pharmacol. 343, 439 (1991)]. Agonist activity was determined utilizing relaxation of carbachol-contracted rat tunica muscularis mucosae (TMM). One 2 cm segment of intrathoracic esophagus proximal to the diaphragm was removed from male rats, weighing approximately 300 gm, and the outer muscle layers removed. The inner tunica muscularis mucosa was mounted under 0.2-0.3 g of tension in a tissue bath containing oxygenated Tyrode's solution at 37° C. […] Following a 30 minute equilibrium period, tissues were isometrically contracted with carbachol (3 μM) to obtain a tonic contraction. A stable plateau was obtained within 20 minutes when test compound was added cumulatively to relax the muscle strip. EC50 values were obtained for each agonist in tissues from 5 rats."}, "antroduodenal motility": {"test_system": "antroduodenal motility", "conditions": "dogs, cited from earlier work"}, "5-HT3 receptor": {"target": "T2, 5-HT3 receptor (Rattus norvegicus, UniProt P35563)", "T2 construct": "Brain cortices were obtained from male rats and a membrane fraction prepared by standard techniques; from tissue; host or cells: rat brain cortex membranes", "T2 sequence (P35563 24-483)": "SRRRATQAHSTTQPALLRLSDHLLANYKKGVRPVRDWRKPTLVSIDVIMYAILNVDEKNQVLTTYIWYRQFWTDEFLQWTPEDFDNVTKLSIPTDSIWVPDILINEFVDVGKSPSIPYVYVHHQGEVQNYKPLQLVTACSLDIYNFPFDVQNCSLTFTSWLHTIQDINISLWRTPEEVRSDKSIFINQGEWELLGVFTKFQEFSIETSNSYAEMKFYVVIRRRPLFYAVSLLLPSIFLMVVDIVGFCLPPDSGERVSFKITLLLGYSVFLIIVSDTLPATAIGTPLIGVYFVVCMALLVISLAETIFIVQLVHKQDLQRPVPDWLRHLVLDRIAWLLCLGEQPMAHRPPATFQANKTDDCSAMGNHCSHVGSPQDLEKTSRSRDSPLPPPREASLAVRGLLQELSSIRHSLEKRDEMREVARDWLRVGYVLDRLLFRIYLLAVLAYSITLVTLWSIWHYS", "assay": "5-HT3 radioligand receptor binding, [3H]-GR65630, rat brain cortex membranes", "procedure": "as §1\nProcedure: GR65630 binds to the 5-HT3 receptor. Brain cortices were obtained from male rats and a membrane fraction prepared by standard techniques. 0.04 mg of membrane prep was incubated with 0.2 nM [^3 H]-GR65630 for 66 minutes at 22° C. […] Membranes were filtered and washed 3 times and the filters were counted to determine [^3 H]-GR65630 specifically bound. [Kilpatrick GJ, Jones BJ and Tyers MB, Identification and Distribution of 5-HT3 Receptors in Rat Brain Using Radioligand Binding Assay, Nature 330, 746-748 (1987)]."}, "gastric emptying": {"test_system": "gastric emptying", "conditions": "in vivo; cited from earlier work"}, "GI transit [3]": {"test_system": "GI transit", "conditions": "cited from earlier work"}, "[4]": {"test_system": "guinea pig stomach strips", "conditions": "in vitro; cited from earlier work"}, "GI transit [5]": {"test_system": "GI transit", "conditions": "mice; cited from earlier work"}, "5-HT3": {"test_system": "5-HT3", "conditions": "in vivo; cited from earlier work"}},
  "note": "“Also recorded” adds a separate entry of the source. Structures can show the parent of a compound that is named as a salt.",
  "data": [
    {"smiles": "COc1cc(N)c(Cl)cc1C(=O)NC1CCN2CCCC1C2", "note": "(stereo not shown) [BRL-24924]", "values": [
      {"measurement": "depolarization of myenteric neurons", "setting": "myenteric neurons", "value": "depolarize myenteric neurons"},
      {"measurement": "prokinetic activity correlated with agonist activity at 5-HT4 receptor", "setting": "5-HT4 receptor [1]", "value": "correlate with agonist activity at a novel 5-HT4 receptor subtype"},
      {"measurement": "peristaltic reflex mediated through 5-HT4 receptors", "setting": "5-HT4 receptors", "value": "mediated through agonism at 5-HT4 receptors"}
    ]},
    {"smiles": "COc1cc(N)c(Cl)cc1C(=O)NC1CCN(CCCOc2ccc(F)cc2)CC1OC", "note": "(stereo not shown) [Cisapride]", "values": [
      {"measurement": "EC50", "setting": "5-HT4 receptor [2]", "value": 55, "unit": "nM"},
      {"measurement": "antroduodenal motility", "setting": "antroduodenal motility", "value": "enhanced antroduodenal motility in dogs"},
      {"measurement": "depolarization of myenteric neurons", "setting": "myenteric neurons", "value": "depolarize myenteric neurons"},
      {"measurement": "prokinetic activity correlated with agonist activity at 5-HT4 receptor", "setting": "5-HT4 receptor [1]", "value": "correlate with agonist activity at a novel 5-HT4 receptor subtype"}
    ]},
    {"smiles": "COc1cc(NC(C)=O)c(Cl)cc1C(=O)N[C@H]1[C@@H]2C[C@@H]3C[C@H]1CN3C2", "note": "[Example 1, Syn-4,(acetylamino)-5-chloro-N-(hexahydro-2,6-methano-1H-pyrrolizin8-yl)-2-methoxybenzamide]", "values": [
      {"measurement": "EC50", "setting": "5-HT4 receptor [2]", "value": 3340, "unit": "nM"}
    ]},
    {"smiles": "COc1cc(NC(C)=O)c(Cl)cc1C(=O)N[C@@H]1[C@@H]2C[C@@H]3C[C@H]1CN3C2", "note": "[Example 2, Anti-4-(acetylamino)-5-chloro-N-(hexahydro-2,6-methano-1H-pyrrolizin-8-yl)-2-methoxybenzamide]", "values": [
      {"measurement": "EC50", "setting": "5-HT4 receptor [2]", "value": "> 10000", "unit": "nM"}
    ]},
    {"smiles": "COc1cc(N)c(Cl)cc1C(=O)N[C@H]1[C@@H]2C[C@@H]3C[C@H]1CN3C2", "note": "[Example 3, Syn-4-amino-5-chloro-N-(hexahydro,2,6-methano-1H-pyrrolizin-8-yl)-2-methoxybenzamide]", "values": [
      {"measurement": "EC50", "setting": "5-HT4 receptor [2]", "value": 2230, "unit": "nM"}
    ]},
    {"smiles": "COc1cc(N)c(Cl)cc1C(=O)N[C@H]1[C@@H]2C[C@@H]3C[C@H]1CN3C2", "note": "[Example 4, Syn-4-amino-5-chloro-N-(hexahydro-2,6-methano-1H-pyrrolizin-8-yl)-2-methoxybenzamide, hydrochloride]", "values": [
      {"measurement": "EC50", "setting": "5-HT4 receptor [2]", "value": 712, "unit": "nM"},
      {"measurement": "Ki", "setting": "5-HT3 receptor", "value": 22, "unit": "nM"}
    ]},
    {"smiles": "COc1cc(N)c(Cl)cc1C(=O)N[C@@H]1[C@@H]2C[C@@H]3C[C@H]1CN3C2", "note": "[Example 5, Anti-4-amino-5-chloro-N-(hexahydro-2,6-methano-1H-pyrrolizin-8-yl)-2-methoxybenzamide]", "values": [
      {"measurement": "EC50", "setting": "5-HT4 receptor [2]", "value": 705, "unit": "nM"}
    ]},
    {"smiles": "COc1cc(N)c(Cl)cc1C(=O)N[C@@H]1[C@@H]2C[C@@H]3C[C@H]1CN3C2", "note": "[Example 6, Anti-4-amino-5-chloro-N-(hexahydro-2,6-methano-1H pyrrolizin-8-yl)-2-methoxybenzamide, monohydrochloride]", "values": [
      {"measurement": "EC50", "setting": "5-HT4 receptor [2]", "value": 382, "unit": "nM"},
      {"measurement": "Ki", "setting": "5-HT3 receptor", "value": 3.8, "unit": "nM"}
    ]},
    {"smiles": "COc1cc(NC(C)=O)c(Cl)cc1C(=O)NCC1C2CC3CC1CN3C2", "note": "(stereo not shown) [Example 7, 4-(Acetylamino)-5-chloro-N-(hexahydro-2,6-methano-1H-pyrrolizin-8-ylmethyl)-2-methoxybenzamide, hydrochloride]", "values": [
      {"measurement": "EC50", "setting": "5-HT4 receptor [2]", "value": "≥ 10000", "unit": "nM"}
    ]},
    {"smiles": "COc1cc(N)c(Cl)cc1C(=O)NCC1C2CC3CC1CN3C2", "note": "(stereo not shown) [Example 9, 4-Amino-5-chloro-N-(hexahydro,2,6-methano-1H-pyrrolizin-8-ylmethyl)-2-methoxybenzamide, monobydrochloride]", "values": [
      {"measurement": "EC50", "setting": "5-HT4 receptor [2]", "value": 397, "unit": "nM"}
    ]},
    {"smiles": "COc1cc(N)c(Cl)cc1C(=O)NC[C@@H]1[C@@H]2C[C@@H]3C[C@H]1CN3C2", "note": "[Example 11, Anti-4-amino-5-chloro-N-(hexahydro-2,6-methano-1H-pyrrolizin-8-ylmethyl)-2-methoxybenzamide, monohydrochloride]", "values": [
      {"measurement": "EC50", "setting": "5-HT4 receptor [2]", "value": 660, "unit": "nM"}
    ]},
    {"smiles": "COc1cc(N)c(Cl)cc1C(=O)OC1C2CC3CC1CN3C2", "note": "(stereo not shown) [Example 13, (Hexahydro-2,6-methano-1H-pyrrolizin-8-yl) 4-amino-5-chloro-2-methoxybenzoate]", "values": [
      {"measurement": "EC50", "setting": "5-HT4 receptor [2]", "value": 216, "unit": "nM"}
    ]},
    {"smiles": "COc1cc(N)c(Cl)cc1C(=O)NC[C@H]1[C@@H]2C[C@@H]3C[C@H]1CN3C2", "note": "[Example 14, Syn-4-amino-5-chloro-N-(hexahydro-2,6-methano-1H-pyrrolizin-8-ylmethyl)-2-methoxybenzamide, monohydrochloride]", "values": [
      {"measurement": "EC50", "setting": "5-HT4 receptor [2]", "value": 421, "unit": "nM"},
      {"measurement": "Ki", "setting": "5-HT3 receptor", "value": 1.1, "unit": "nM"}
    ]},
    {"smiles": "Cc1nccn1CC1CCc2c(c3ccccc3n2C)C1=O", "note": "(stereo not shown) [GR38032]", "values": [
      {"measurement": "gastric emptying", "setting": "gastric emptying", "value": "enhanced gastric emptying"},
      {"measurement": "GI transit / colonic transit", "setting": "GI transit [3]; man (S. Gore et al.)", "value": "not only failed to accelerate GI transit, but in fact slowed colonic transit in man"},
      {"measurement": "small intestinal transit times or mouth-to-cecum transit times", "setting": "GI transit [3]; man (Talley et al.)", "value": "did not alter small intestinal transit times or mouth-to-cecumtransit times"}
    ]},
    {"smiles": "Cc1nc[nH]c1CCC(=O)c1cn(C)c2ccccc12", "note": "[GR65630]", "values": [
      {"measurement": "Bmax", "setting": "5-HT3 receptor; [3H]-GR65630, rat brain cortex membranes", "value": 154, "unit": "fmol/mg protein"},
      {"measurement": "% Specific Binding", "setting": "5-HT3 receptor; [3H]-GR65630, non-specific binding in presence of 1 uM ICS 205,930", "value": 70, "unit": "%"}
    ]},
    {"smiles": "CN1[C@@H]2CC[C@H]1C[C@@H](OC(=O)c1c[nH]c3ccccc13)C2", "note": "[ICS 205,930]", "values": [
      {"measurement": "guinea pig stomach strip contraction", "setting": "[4]", "value": "enhanced guinea pig stomach muscle strip contraction in vitro"},
      {"measurement": "gastric emptying", "setting": "gastric emptying", "value": "increases in gastric emptying rates in vivo; also recorded: enhanced gastric emptying"},
      {"measurement": "effect on responses to cisapride", "setting": "antroduodenal motility; coadministered with cisapride", "value": "did not affect the responses to cisapride when the agents were coadministered"}
    ]},
    {"smiles": "CN1[C@@H]2CC[C@H]1C[C@@H](OC(=O)c1cc(Cl)cc(Cl)c1)C2", "note": "[MDL 72222]", "values": [
      {"measurement": "guinea pig stomach strip contraction", "setting": "[4]", "value": "enhanced guinea pig stomach muscle strip contraction in vitro"},
      {"measurement": "gastric emptying", "setting": "gastric emptying", "value": "increases in gastric emptying rates in vivo"}
    ]},
    {"smiles": "Cc1nccn1CC1CCc2c(c3ccccc3n2C)C1=O.Cl.O.O", "note": "(stereo not shown) [SN-307]", "values": [
      {"measurement": "transit of a charcoal meal", "setting": "GI transit [5]", "value": "enhanced transit of a charcoal meal in mice"}
    ]},
    {"smiles": "NCCc1c[nH]c2ccc(O)cc12", "note": "[Serotonin, 5-hydroxytryptamine]", "values": [
      {"measurement": "peristaltic reflex mediated through 5-HT4 receptors", "setting": "5-HT4 receptors", "value": "mediated through agonism at 5-HT4 receptors"}
    ]},
    {"smiles": "CCN(CC)CCNC(=O)c1cc(Cl)c(N)cc1OC", "note": "[metoclopramide]", "values": [
      {"measurement": "guinea pig stomach strip contraction", "setting": "[4]", "value": "enhanced electrical-field stimulated contractions in guinea pig stomach strips; also recorded: enhanced guinea pig stomach muscle strip contraction in vitro"},
      {"measurement": "gastric emptying", "setting": "gastric emptying", "value": "increases in gastric emptying rates in vivo"},
      {"measurement": "5-HT3 mediated Bezold Jarisch reflex", "setting": "5-HT3", "value": "blocks the 5-HT3 mediated Bezold Jarisch reflex"}
    ]},
    {"smiles": "COc1cc(N)c(Cl)cc1C(=O)NC1CN2CCC1CC2", "note": "(stereo not shown) [zacopride]", "values": [
      {"measurement": "gastric emptying", "setting": "gastric emptying", "value": "enhanced gastric emptying"}
    ]}
  ]
}
